Common to all, as to assay type: in vivo
One assay has as its system Hist. The assay is described as follows: Konzett data, Hist.
Another assay has as its system 5-HT. The assay is described as follows: Konzett data, 5-HT.
Another assay relates to Ach. The assay is described as follows: Konzett data, Ach.

Molecules are shown by their SMILES.

Here are results for five compounds from patent US4289910A, “1-Hydroxymethyl-prosten-1-ol derivatives” (American Cyanamid Company, priority 1980, dated 1981).

The ED50 is the dose at which the effect has come halfway, by size or by number of responders. Read a high ED50 as weaker potency.

With `CCCCCC(C)(O)/C=C/C1C(O)CC(=O)C1C/C=C\CCCCO` (racemic) [dl-1,11 ,15-trihydroxymethyl-9-oxo-15-methyl-5-cis-13-trans prostadiene], the “Hist (ED50)” value in the assay with Hist stood at 0.75 mg/kg. For the same compound, the “5-HT (ED50)” value in the assay with 5-HT turned out to be 8.3 mg/kg. In addition, the “Ach (ED50)” value with Ach turned out to be 4.3 mg/kg.
In the assay with Ach, `C=CC(O)(C/C=C/[C@H]1[C@H](O)CC(=O)[C@@H]1CCCCCCC(O)CO)CCCC` (relative stereo) [3β-(4-Butylhydroxy-4-hydroxy-1,5-hexadienyl)-2α-(7,8-dihydroxyoctyl)-4α-hydroxycyclopentanone] displayed an ED50 of 20.1 mg/kg.
Still for that read-out and setting: as for `CCCCC(C)(O)C/C=C/[C@H]1[C@H](O)CC(=O)[C@@H]1C/C=C\CCCC(O)CO` (relative stereo) [11α,16-Dihydroxy-1-hydroxymethyl-16-methyl-9-oxo-5-cis-13-trans-prostadien-1-ol], the figure is 331 mg/kg; as for `CCCCC(C)(O)C/C=C/[C@H]1[C@H](O)CC(=O)[C@@H]1CCCCCCC(O)CO` (relative stereo) [11α,16-Dihydroxy-1-hydroxymethyl-16-methyl-,9-oxo-13-trans-prosten-1-ol], 75.9 mg/kg; as for `C=CC(O)(C/C=C/[C@H]1[C@H](O)CC(=O)[C@@H]1C/C=C\CCCC(O)CO)CCCC` (relative stereo) [11α,16-Dihydroxy-1-hydroxymethyl-16-vinyl-9-oxo-5-cis-13-trans-prostadien-1-ol], 11.8 mg/kg.
